Test results from paper PMC3510655 (Chemical science (Royal Society of Chemistry : 2010), 2013).

Biological target: T1, quinone reductase 2 (QR2) (Homo sapiens, UniProt P16083)
T1 sequence (P16083 1-231): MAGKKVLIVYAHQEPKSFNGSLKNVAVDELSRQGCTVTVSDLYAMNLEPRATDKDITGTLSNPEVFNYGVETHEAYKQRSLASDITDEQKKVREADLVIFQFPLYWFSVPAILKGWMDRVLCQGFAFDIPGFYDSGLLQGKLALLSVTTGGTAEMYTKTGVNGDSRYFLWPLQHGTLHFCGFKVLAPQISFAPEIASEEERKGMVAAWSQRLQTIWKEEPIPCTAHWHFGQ
Assay: QR2 inhibition assay using human recombinant protein
Type: biochemical
Settings: authors' assay system

IC50 against QR2	Substance
nearly equipotent to 4	Ammosamide E [compound 1]
irreproducible results	Ammosamide H [compound 10]
